Laboratory results: patent EP4371976B1, “IONIZABLE LIPIDS AND LIPID NANOPARTICLES CONTAINING THEREOF” (Certest Biotec, S.L., priority 2022, dated 2024)

Columns and labels:
[1] = Size distribution, polydispersity and Z-potential of LNPs by dynamic light scattering (Malvern Zetasizer); type: physicochemical; conditions: LNPs, standard formulation 50:10:38.5:1.5; DLS
Method: (§1) The LNP solution was then adjusted to a final concentration of mRNA of 100 µg/ml. Size distribution, polydispersity and Z-potential were measured by dynamic light scattering (DLS) using Malvern Zetasizer Advance Lab Blue Label. RNA encapsulation was assessed by Quant-IT® Ribogreen following the manufacturer's instructions.

[2] = RNA encapsulation efficiency of LNPs by Quant-IT Ribogreen; type: physicochemical; conditions: for Encaps. efficiency (%): LNPs with luciferase mRNA, ionizable lipid:non-cationic lipid:sterol:PEG-modified lipid 50:10:38.5:1.5, percentage of RNA entrapped in the LNP
Method: The mRNA aqueous solution was then carefully added to the ethanol solution, and the resulted solution was homogenized by pipetting up and down for 4-5 times. The resulting LNPs were immediately diluted 1:1 with Tris buffer and dialyzed overnight against Tris buffer containing 15% sucrose. The resulting LNP solution was then collected, and the encapsulated mRNA was assessed by Quant-IT® Ribogreen (Invitrogen R11490) following the manufacturer's instructions.
as §1

SMILES	P.D.I. [1]	Particle size/ Ø (nm) [1] [nm]	Z Potential (± D.E.) [mV] [1] [mV]	Encaps. efficiency (%) [2] [%]	Encaps. efficiency ([2]; Table 8, LNP 50:10:38.5:1.5, luciferase mRNA) [%]
CCCCCCCC/C=C\CCCCCCCCOC(=O)CCSCCC(C(=O)NC1CCN(C)CC1)C(=O)OC(CCCCCCCC)CCCCCCCC (centres unmarked) [VC-LC-0443]	0.13	181.3	-2.92	86.01	86.01
CCCCCCCC/C=C\CCCCCCCC(=O)NC(CCSCCC(=O)OCCCCCC(C)C)C(=O)NCCCN(CCO)CCO (centres unmarked) [VC-LC-0293]	0.13	178.6	12.29	92.48	–
CCCCCCCCC(CCCCCC)C(=O)NC(CCSCCC(=O)OCC(CC)CCCC)C(=O)NCCN1CCN(C)CC1 (centres unmarked) [VC-LC-0181]	0.35	206.7	-6.47	85.48	–
CCCCCCCC/C=C\CCCCCCCC(=O)NC(CCSCCC(=O)OCCCCCCCCCCCC)C(=O)NC1CCN(C)CC1 (centres unmarked) [VC-LC-0326]	0.25	181.9	7.00	99.06	–
CCCCCCCCC(CCCCCC)C(=O)NC(CCSCCC(=O)OCCCCCCCC(C)C)C(=O)NCCCN1CCOCC1 (centres unmarked) [VC-LC-0165]	0.21	181.9	-26.69	45.16	–
CCCCCCCC#CCOC(=O)CCSCCC(NC(=O)CCCCCCC/C=C\CCCCCCCC)C(=O)NCCCN1CCOCC1 (centres unmarked) [VC-LC-0354]	0.13	234.3	-0.57	68.28	–
CCCCCCCCOC(=O)CCSCCC(NC(=O)C(CCCCCC)CCCCCCCC)C(=O)NCCCn1ccnc1 (centres unmarked) [VC-LC-0269]	0.15	176.7	-10.28	36.60	–
CCCCCCCCCCCCOC(=O)CCSCCC(NC(=O)C(CCCCCC)CCCCCCCC)C(=O)NCCCN(C)C (centres unmarked) [VC-LC-0103]	–	–	0.00	100.00	–
CCCCCCCCCCCCCCCCOC(=O)CCSCCC(NC(=O)C(CCCCCC)CCCCCCCC)C(=O)NCCCN1CCOCC1 (centres unmarked) [VC-LC-0170]	–	266.4	-22.79	56.36	–
CCCCCCCCCCCCOC(=O)CCSCCC(NC(=O)C(CCCCCC)CCCCCCCC)C(=O)NCCCn1ccnc1 (centres unmarked) [VC-LC-0260]	0.18	161.7	-17.24	44.25	–
CCCCCCCCCCCCCCCCOC(=O)CCSCCC(NC(=O)C(CCCCCC)CCCCCCCC)C(=O)NCCCN(CCO)CCO (centres unmarked) [VC-LC-0201]	–	259.7	2.80	86.70	–
CCCCCCCC/C=C\CCCCCCCC(=O)NC(CCSCCC(=O)OCCCCCCCCCCCCC)C(=O)NC1CCN(C)CC1 (centres unmarked) [VC-LC-0322]	0.17	220.5	2.31	97.01	–
CCCCCCCCC(CCCCCC)C(=O)NC(CCSCCC(=O)OCC(CC)CCCC)C(=O)NCCCN(CCO)CCO (centres unmarked) [VC-LC-0197]	0.22	262.2	1.39	90.54	–
CCCCCCCCC(CCCCCC)C(=O)NC(CCSCCC(=O)OCC(CC)CCCC)C(=O)NCCCN1CCCC1 (centres unmarked) [VC-LC-0244]	0.16	175	1.09	53.57	–
CCCCCCCCCCCCOC(=O)CCSCCC(NC(=O)C(CCCCCC)CCCCCCCC)C(=O)NCCCN1CCCC1 (centres unmarked) [VC-LC-0245]	0.16	177.3	5.96	94.64	–
CCCCCCCC#CCOC(=O)CCSCCC(NC(=O)CCCCCCCCCCCCCCCCC)C(=O)NC1CCN(C)CC1 (centres unmarked) [VC-LC-0437]	0.23	152	7.76	99.92	–
CCCCCCCCCCCCCOC(=O)CCSCCC(NC(=O)C(CCCCCC)CCCCCCCC)C(=O)NCCCN(C)C (centres unmarked) [VC-LC-0099]	–	–	0.00	98.48	–
CCCCCCCCCCCCCCCCOC(=O)CCSCCC(NC(=O)C(CCCCCC)CCCCCCCC)C(=O)NCCCN(C)C (centres unmarked) [VC-LC-0106]	–	–	0.00	98.70	–
CCCCCCCCCCCCCCOC(=O)CCSCCC(NC(=O)C(CCCCCC)CCCCCCCC)C(=O)NCCCN(C)C (centres unmarked) [VC-LC-0104]	–	–	0.00	100.00	–

SMILES	P.D.I. [1]	Particle size/ Ø (nm) [1] [nm]	Z Potential (± D.E.) [mV] [1] [mV]	Encaps. efficiency (%) [2] [%]	Encaps. efficiency ([2]; Table 8, LNP 50:10:38.5:1.5, luciferase mRNA) [%]
CCCCCCCCC(CCCCCC)C(=O)NC(CCSCCC(=O)OCCCCCCCC(C)C)C(=O)NCCCN1CCCC1 (centres unmarked) [VC-LC-0243]	0.18	197.6	2.43	93.35	–
CCCCCCCCCCCCCCCCOC(=O)CCSCCC(NC(=O)C(CCCCCC)CCCCCCCC)C(=O)NC1CCN(C)CC1 (centres unmarked) [VC-LC-0216]	0.35	–	-20.53	52.13	–
CCCCCCCCC(CCCCCC)COC(=O)C(CSCCC(=O)OCCCCCCCC(C)C)CC(=O)NC1CCN(C)CC1 (centres unmarked) [VC-LC-0526]	0.16	124.7	3.68	97.90	–
CCCCCCCCOC(=O)CCSCCC(NC(=O)C(CCCCCC)CCCCCCCC)C(=O)NCCN1CCN(C)CC1 (centres unmarked) [VC-LC-0191]	0.11	135.2	4.77	87.02	–
CCCCCCCCCCCCCOC(=O)CCSCC(CC(=O)NCCCn1ccnc1)C(=O)OC(CCCCCCCC)CCCCCCCC (centres unmarked) [VC-LC-0294]	0.09	160.7	-10.37	65.74	–
CCCCCCCCCCCCCCCCCCOC(=O)CCSCCC(NC(=O)CCCCCCCCCCCCCCCCC)C(=O)NCCCN1CCOCC1 (centres unmarked) [VC-LC-0380]	0.25	170.6	-17.08	71.74	–
CCCCCCCCCCCCCCCCOC(=O)CCSCC(CC(=O)NC1CCN(C)CC1)C(=O)OCC(CCCCCC)CCCCCCCC (centres unmarked) [VC-LC-0531]	0.19	158.6	9.15	98.54	–
CCCCCCCCCCCCCCCCCCOC(=O)CCSCC(CC(=O)NC1CCN(C)CC1)C(=O)OCC(CCCCCC)CCCCCCCC (centres unmarked) [VC-LC-0530]	0.26	164	7.65	97.41	–
CCCCCCCCCCCCCOC(=O)CCSCC(CC(=O)NC1CCN(C)CC1)C(=O)OCC(CCCCCC)CCCCCCCC (centres unmarked) [VC-LC-0524]	0.15	129.9	3.83	97.01	–
CCCCCCCCC(CCCCCC)C(=O)NC(CCSCCC(=O)OCCCCCC(C)C)C(=O)NC1CCN(C)CC1 (centres unmarked) [VC-LC-0217]	0.14	156.7	-2.41	72.79	–
CCCCCCCCCCCCCCCCCCOC(=O)CCSCC(CC(=O)NCCCn1ccnc1)C(=O)OC(CCCCCCCC)CCCCCCCC (centres unmarked) [VC-LC-0300]	0.17	156.9	-9.75	36.51	–
CCCCCCCCC(CCCCCC)C(=O)NC(CCSCCC(=O)OCCCCCC)C(=O)NCCCN(CCO)CCO (centres unmarked) [VC-LC-0206]	0.17	179.9	-2.86	82.26	–
CCCCCCCCCCCCCCCCCCOC(=O)CCSCCC(C(=O)NCCCn1ccnc1)C(=O)OC(CCCCCCCC)CCCCCCCC (centres unmarked) [VC-LC-0368]	0.1	140.9	-15.81	89.08	–
CCCCCCCCC(CCCCCC)C(=O)NC(CCSCCC(=O)OCCCCCCCC(C)C)C(=O)NCCN1CCN(C)CC1 (centres unmarked) [VC-LC-0180]	0.19	197.5	-4.28	87.95	–
CCCCCCCCCCCCOC(=O)CCSCCC(NC(=O)C(CCCCCC)CCCCCCCC)C(=O)NCCN1CCN(C)CC1 (centres unmarked) [VC-LC-0182]	0.22	217.1	-2.72	91.18	–
CCCCCCCCCCCCCCCCCC(=O)NC(CCSCCC(=O)OCCCCCCCCCCCCC)C(=O)NC1CCN(C)CC1 (centres unmarked) [VC-LC-0435]	0.2	182.6	8.58	99.22	–
CCCCCCCCCCCCCCCCCCCCCCOC(=O)CCSCC(CC(=O)NCCCn1ccnc1)C(=O)OC(CCCCCCCC)CCCCCCCC (centres unmarked) [VC-LC-0304]	0.26	–	-23.20	54.05	–
CCCCCCCCCCCCCCCCCCCCCCOC(=O)CCSCCC(C(=O)NCCCn1ccnc1)C(=O)OC(CCCCCCCC)CCCCCCCC (centres unmarked) [VC-LC-0363]	0.18	143.9	-17.92	63.87	–
